Assay results as given in ChEMBL document CHEMBL1201862, “PubChem BioAssay data set” (2004).
Calls of active or inactive are those of the source.

Columns and labels:
Hexokinase HKDC1 = target: T1, Hexokinase HKDC1 (Homo sapiens, UniProt Q2TB90); assay: HKDC1 hexokinase inhibitors, dose response, biochemical, W721R variant (AID 504729); type: functional
T1 sequence (Q2TB90 whole entry): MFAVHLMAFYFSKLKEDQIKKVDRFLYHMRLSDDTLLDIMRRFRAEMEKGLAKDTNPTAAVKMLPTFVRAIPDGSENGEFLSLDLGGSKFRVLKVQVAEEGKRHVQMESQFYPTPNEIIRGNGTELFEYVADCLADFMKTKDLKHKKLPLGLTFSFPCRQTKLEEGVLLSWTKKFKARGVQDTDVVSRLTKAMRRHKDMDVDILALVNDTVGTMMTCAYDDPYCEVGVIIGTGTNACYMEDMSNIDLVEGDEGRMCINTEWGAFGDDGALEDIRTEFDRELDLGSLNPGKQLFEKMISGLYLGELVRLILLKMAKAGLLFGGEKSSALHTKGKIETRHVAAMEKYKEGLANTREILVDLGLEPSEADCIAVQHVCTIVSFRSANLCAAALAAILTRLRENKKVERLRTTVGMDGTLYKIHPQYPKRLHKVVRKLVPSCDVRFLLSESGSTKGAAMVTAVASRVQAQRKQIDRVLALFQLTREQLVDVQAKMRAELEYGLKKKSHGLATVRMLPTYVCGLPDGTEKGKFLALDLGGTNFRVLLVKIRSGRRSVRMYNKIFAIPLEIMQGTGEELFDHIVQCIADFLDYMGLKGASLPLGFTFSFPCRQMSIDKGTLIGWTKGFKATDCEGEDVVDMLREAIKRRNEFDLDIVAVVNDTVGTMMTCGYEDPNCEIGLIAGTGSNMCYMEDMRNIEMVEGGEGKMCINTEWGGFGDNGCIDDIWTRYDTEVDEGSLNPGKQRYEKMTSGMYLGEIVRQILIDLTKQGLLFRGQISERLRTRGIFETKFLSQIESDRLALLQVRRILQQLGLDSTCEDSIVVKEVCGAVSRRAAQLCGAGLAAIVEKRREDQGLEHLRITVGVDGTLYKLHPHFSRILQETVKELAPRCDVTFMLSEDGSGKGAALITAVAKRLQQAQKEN

Cytochrome P450 2C9 = Cytochrome P450 2C9 (Homo sapiens, UniProt P11712); conditions: Potency
[1] = target: T2, Tyrosine-protein phosphatase non-receptor type 7 (Homo sapiens, UniProt P35236); assay: redox-dependent HePTP inhibition, mechanism study, biochemical, fluorescence (AID 2068); type: functional
T2 sequence (P35236 whole entry): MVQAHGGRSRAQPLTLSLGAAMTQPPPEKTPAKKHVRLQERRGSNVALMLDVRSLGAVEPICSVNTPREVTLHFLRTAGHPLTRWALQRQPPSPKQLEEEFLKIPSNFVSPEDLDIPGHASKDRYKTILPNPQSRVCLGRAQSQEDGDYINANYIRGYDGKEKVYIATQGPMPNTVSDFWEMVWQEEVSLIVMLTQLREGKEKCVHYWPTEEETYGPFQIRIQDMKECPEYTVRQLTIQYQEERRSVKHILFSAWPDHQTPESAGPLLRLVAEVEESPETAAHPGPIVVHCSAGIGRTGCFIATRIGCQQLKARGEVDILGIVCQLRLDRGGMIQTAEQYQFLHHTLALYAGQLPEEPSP

[2] = target: T3, Dual specificity protein phosphatase 3 (Homo sapiens, UniProt P51452); assay: SAR VHR1 absorbance Assay for In Vitro dose response studies. [Related pubchem assays (depositor defined):AID1654, AID1661, AID1878, AID1992, AID2004]
[3] = target: Dual specificity protein phosphatase 6 (Rattus norvegicus, UniProt Q64346); type: functional;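 also: confirmatory in vitro dose-response testing of MKP-3 inhibition; recombinant His-tagged MKP-3 made in E. coli BL21 with OMFP substrate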
[4] = target: T4, Rac GTPase-activating protein 1 (Homo sapiens, UniProt Q9H0H5); assay: MgcRacGAP GTPase-activating activity inhibitors, confirmation, biochemical, ADP Hunter fluorescence, primary and confirmatory (AID 624330); type: functional
T4 sequence (Q9H0H5 whole entry): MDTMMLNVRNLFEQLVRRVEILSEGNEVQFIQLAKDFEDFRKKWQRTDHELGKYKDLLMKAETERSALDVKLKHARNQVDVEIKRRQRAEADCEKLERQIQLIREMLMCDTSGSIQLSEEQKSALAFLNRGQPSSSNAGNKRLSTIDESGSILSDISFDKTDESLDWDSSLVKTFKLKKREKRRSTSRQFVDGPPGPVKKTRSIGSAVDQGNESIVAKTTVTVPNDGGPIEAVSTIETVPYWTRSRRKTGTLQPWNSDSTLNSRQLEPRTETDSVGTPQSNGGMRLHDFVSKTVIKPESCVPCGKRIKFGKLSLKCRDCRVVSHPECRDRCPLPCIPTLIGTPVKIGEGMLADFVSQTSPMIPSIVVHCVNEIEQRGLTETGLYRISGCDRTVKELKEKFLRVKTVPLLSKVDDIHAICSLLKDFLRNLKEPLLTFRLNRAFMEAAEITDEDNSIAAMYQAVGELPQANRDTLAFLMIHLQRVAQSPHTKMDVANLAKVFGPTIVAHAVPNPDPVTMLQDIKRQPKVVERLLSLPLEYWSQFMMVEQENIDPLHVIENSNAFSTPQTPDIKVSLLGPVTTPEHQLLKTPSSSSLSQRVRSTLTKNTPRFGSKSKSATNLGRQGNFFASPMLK

[5] = target: T3, Dual specificity protein phosphatase 3; assay: MOA VHR1 Fluorescent secondary assay for identification of redox-state modulating compounds. [Related pubchem assays (depositor defined):AID1654, AID1661, AID1878, AID1957]
[6] = target: T3, Dual specificity protein phosphatase 3; assay: SAR VHR1 Fluorescent Assay for In Vitro dose response studies. [Related pubchem assays (depositor defined):AID1654, AID1661, AID1878, AID1992, AID2004, AID2070, AID2085]; type: functional
[7] = target: DNA dC->dU-editing enzyme APOBEC-3A (Homo sapiens, UniProt P31941); assay: Dose Response confirmation of small molecule APOBEC3A DNA Deaminase Inhibitors via a fluorescence-based single-stranded DNA deaminase assay. [Related pubchem assays (depositor defined):AID493011, AID493024]; type: functional
[8] = target: DNA dC->dU-editing enzyme APOBEC-3G (Homo sapiens, UniProt Q9HC16); type: functional;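 also: Dose-response counterscreen measuring inhibition of APOBEC3G DNA deaminase activity, run while confirming APOBEC3A inhibitors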
[9] = target: Eukaryotic translation initiation factor 4H (Homo sapiens, UniProt Q15056); assay: human eIF4H binding inhibitors, primary screen, translation initiation inhibitor project, biochemical, uHTS, fluorescence polarization (AID 2012)
[10] = target: Polyadenylate-binding protein 1 (Homo sapiens, UniProt P11940); assay: PABP poly(A) RNA binding inhibitors, primary screen, biochemical, fluorescence polarization, uHTS (AID 2014)
Aspartyl aminopeptidase = Aspartyl aminopeptidase (Plasmodium falciparum 3D7, UniProt Q8I2J3)
Procathepsin L = Procathepsin L (Homo sapiens, UniProt P07711)
Oxytocin receptor = Oxytocin receptor (Homo sapiens, UniProt P30559); assay: Fluorescence-based cell-based high throughput dose response assay for agonists of the Oxytocin Receptor (OXTR). [Related pubchem assays: 2435 (Primary screen (OXTR agonists in singlicate)), 434991 (Counterscreen (V1R agonists in triplicate)), 2482 (Summary (OXTR agonists)), 434963 (Confirmation screen (OXTR agonists in triplicate))]; type: functional
Vasopressin V1a receptor = Vasopressin V1a receptor (Homo sapiens, UniProt P37288); assay: Counterscreen for Oxytocin Receptor (OXTR) agonists: Fluorescence-based cell-based high throughput dose response assay to identify agonists of the vasopressin 1 receptor (V1R). [Related pubchem assays: 2435 (Primary screen (OXTR agonists in singlicate)), 434991 (Counterscreen (V1R agonists in triplicate)), 2482 (Summary (OXTR agonists)) …; type: functional
[11] = inhibitors of SNCA 5'UTR-driven translation, confirmation, luminescence, H4 neuroglioblastoma cells, dose confirmation (AID 2454); type: functional, cell-based;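 also: H4 neuroglioblastoma cells carrying an alpha-synuclein 5'UTR luciferase reporter; potency for inhibition of the luciferase signal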
[12] = luciferase reporter signal reduction – luminescence, H4-C neuroglioblastoma cells, dose response (AID 2458); type: functional, cell-based;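 also: H4 neuroglioblastoma cells stably carrying a luciferase reporter gene fusion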
[13] = cytotoxicity in HEK-293T cells, dose response, cytotoxicity control for TCR NF-kB inhibitor project, luminescence, T-cell screen hits (AID 489026); type: functional, cell-based;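 also: cells exposed to compound about 14 hours before the viability readout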
cells = type: functional, cell-based
[14] = inhibitors of SNCA 5'UTR-driven reporter translation, confirmation, H4 neuroglioma cells, luminescence (AID 1988); type: functional, cell-based
[15] = Luminescence Cell-Based Dose Response HTS to Identify Inhibitors of 5'UTR Stem-Loop Driven Prion Protein mRNA Translation in H4 Neuroglioblastoma Cells. [Related pubchem assays: 1827 (Project Summary), 1813 (Primary HTS)]; type: functional
[16] = Luminescence-based counterscreen assay for KLF5 inhibitors: dose response cell-based high throughput screening assay to identify cytotoxic compounds using the IEC-6 intestinal epithelial cell line. [Related pubchem assays: 1700 (Primary screen.), 1834 (Confirmation screen.), 1858 (Summary AID.), 1905 (Counterscreen.)]; type: functional
[17] = inhibitors of firefly luciferase expression or activity, dose response, H4 neuroglioma cells, luminescence (AID 1990); type: functional, cell-based
[18] = target: Heat shock protein HSP 90-alpha (Homo sapiens, UniProt P07900); assay: Luminescence-based dose response biochemical high throughput screening assay for inhibitors of the Heat Shock Protein 90 (HSP90). [Related pubchem assays: 1831 (Summary AID.), 1846 (Confirmation screen.), 1789 (Primary screen.)]
[19] = target: T5, Histone-lysine N-methyltransferase NSD2 (Homo sapiens, UniProt O96028); type: biochemical
T5 sequence (O96028 whole entry): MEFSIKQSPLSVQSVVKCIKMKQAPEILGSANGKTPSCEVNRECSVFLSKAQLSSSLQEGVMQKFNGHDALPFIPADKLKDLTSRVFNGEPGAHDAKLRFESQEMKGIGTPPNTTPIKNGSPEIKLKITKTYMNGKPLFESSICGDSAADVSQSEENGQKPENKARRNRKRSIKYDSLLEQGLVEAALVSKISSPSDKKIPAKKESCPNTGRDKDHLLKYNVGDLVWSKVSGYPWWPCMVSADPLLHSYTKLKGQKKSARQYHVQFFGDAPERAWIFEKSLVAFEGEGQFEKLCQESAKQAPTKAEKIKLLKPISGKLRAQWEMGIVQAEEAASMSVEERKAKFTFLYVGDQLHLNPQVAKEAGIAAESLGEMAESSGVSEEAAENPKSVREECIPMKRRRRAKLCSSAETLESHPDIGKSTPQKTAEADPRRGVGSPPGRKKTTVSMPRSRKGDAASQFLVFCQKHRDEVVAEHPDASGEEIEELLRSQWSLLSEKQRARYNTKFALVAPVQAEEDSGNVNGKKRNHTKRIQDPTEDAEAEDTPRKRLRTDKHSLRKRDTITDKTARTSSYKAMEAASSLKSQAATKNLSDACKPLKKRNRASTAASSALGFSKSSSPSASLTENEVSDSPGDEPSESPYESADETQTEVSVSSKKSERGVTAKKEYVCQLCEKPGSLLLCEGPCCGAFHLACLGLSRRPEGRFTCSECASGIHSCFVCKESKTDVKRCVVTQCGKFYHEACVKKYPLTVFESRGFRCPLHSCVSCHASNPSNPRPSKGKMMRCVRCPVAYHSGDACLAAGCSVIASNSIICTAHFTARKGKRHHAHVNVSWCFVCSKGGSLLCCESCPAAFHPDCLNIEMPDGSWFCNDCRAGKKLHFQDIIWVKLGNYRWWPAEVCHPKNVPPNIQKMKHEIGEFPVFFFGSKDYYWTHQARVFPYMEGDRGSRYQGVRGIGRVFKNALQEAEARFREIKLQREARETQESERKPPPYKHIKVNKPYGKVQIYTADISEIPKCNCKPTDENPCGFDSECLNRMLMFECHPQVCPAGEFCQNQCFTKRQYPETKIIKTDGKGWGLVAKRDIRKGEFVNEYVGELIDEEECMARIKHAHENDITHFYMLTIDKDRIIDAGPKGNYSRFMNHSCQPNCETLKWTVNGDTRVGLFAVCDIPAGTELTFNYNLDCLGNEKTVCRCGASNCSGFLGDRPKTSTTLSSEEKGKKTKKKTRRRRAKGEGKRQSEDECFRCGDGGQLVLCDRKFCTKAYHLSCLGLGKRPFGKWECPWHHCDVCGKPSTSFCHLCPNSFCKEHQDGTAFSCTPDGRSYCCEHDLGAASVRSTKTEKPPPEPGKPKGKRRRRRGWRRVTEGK

T3 sequence (P51452 whole entry): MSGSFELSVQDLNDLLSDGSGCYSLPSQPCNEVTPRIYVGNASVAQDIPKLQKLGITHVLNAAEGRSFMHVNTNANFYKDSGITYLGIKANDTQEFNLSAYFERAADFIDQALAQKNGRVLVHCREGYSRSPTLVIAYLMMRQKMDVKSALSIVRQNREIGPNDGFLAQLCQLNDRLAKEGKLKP
Chain of DNA dC->dU-editing enzyme APOBEC-3A (P31941 whole entry): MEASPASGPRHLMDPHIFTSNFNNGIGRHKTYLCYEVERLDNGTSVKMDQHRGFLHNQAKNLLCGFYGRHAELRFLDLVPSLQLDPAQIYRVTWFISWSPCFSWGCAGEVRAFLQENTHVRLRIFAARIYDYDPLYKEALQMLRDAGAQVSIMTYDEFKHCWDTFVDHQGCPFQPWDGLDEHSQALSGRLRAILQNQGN
Chain of Cytochrome P450 2C9 (P11712 whole entry): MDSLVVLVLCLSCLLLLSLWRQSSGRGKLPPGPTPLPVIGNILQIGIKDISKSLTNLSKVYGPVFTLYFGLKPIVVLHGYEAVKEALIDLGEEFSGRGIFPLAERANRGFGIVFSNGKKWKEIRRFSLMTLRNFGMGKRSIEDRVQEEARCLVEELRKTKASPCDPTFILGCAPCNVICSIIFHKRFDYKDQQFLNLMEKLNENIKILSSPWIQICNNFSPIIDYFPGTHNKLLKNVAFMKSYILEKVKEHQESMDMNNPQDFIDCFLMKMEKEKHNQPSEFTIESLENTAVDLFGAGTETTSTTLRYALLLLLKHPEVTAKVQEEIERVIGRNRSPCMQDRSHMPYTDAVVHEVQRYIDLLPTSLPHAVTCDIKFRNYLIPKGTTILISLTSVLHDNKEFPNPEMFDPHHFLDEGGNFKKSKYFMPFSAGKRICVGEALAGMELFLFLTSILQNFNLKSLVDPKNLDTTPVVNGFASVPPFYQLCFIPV
Chain of Aspartyl aminopeptidase (Q8I2J3 whole entry): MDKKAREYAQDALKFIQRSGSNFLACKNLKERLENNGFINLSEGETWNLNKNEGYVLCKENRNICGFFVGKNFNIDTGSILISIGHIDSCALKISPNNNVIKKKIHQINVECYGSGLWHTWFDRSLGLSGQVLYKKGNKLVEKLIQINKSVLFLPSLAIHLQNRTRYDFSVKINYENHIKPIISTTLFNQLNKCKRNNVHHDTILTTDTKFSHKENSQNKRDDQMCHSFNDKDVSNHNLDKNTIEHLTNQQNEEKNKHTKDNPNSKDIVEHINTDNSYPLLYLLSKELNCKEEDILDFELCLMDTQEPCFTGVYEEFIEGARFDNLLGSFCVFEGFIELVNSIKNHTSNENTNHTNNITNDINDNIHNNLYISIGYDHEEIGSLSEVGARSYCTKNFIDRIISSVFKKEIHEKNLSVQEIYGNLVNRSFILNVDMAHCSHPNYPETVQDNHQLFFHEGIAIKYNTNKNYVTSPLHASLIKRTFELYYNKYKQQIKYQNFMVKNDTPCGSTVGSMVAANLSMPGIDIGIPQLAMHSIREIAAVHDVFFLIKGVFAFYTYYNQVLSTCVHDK
Chain of DNA dC->dU-editing enzyme APOBEC-3G (Q9HC16 whole entry): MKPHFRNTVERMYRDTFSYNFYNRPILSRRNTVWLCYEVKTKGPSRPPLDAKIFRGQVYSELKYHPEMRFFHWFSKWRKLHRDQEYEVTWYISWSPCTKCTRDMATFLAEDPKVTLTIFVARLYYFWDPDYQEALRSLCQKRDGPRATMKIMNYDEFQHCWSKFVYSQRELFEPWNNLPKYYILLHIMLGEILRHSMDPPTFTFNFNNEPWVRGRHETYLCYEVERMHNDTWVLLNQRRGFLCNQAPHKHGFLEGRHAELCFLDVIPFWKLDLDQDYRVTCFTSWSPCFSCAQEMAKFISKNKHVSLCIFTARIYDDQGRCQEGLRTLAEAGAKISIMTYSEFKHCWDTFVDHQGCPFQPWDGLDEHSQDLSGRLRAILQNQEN
Chain of Vasopressin V1a receptor (P37288 whole entry): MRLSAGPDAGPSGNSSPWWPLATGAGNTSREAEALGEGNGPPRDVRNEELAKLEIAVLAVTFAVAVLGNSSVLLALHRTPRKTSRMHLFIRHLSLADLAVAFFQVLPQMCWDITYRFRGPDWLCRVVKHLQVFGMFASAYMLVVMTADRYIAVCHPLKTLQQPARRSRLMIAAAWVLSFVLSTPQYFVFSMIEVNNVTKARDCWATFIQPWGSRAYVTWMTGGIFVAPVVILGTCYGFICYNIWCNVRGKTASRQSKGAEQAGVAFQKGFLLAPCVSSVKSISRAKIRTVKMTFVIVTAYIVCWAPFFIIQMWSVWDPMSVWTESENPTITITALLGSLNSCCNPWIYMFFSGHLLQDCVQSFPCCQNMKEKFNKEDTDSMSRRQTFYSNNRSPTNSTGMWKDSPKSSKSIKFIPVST
Chain of Dual specificity protein phosphatase 6 (Q64346 whole entry): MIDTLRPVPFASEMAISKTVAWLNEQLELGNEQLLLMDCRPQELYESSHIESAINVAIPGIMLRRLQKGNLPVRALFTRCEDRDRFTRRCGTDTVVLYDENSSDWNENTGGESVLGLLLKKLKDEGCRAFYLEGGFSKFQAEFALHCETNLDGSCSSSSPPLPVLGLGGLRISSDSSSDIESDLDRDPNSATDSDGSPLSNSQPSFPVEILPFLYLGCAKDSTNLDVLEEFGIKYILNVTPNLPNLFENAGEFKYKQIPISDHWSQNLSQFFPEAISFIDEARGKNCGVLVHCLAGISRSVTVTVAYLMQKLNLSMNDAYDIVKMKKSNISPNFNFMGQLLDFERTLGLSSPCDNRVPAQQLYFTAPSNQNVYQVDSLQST
Chain of Polyadenylate-binding protein 1 (P11940 whole entry): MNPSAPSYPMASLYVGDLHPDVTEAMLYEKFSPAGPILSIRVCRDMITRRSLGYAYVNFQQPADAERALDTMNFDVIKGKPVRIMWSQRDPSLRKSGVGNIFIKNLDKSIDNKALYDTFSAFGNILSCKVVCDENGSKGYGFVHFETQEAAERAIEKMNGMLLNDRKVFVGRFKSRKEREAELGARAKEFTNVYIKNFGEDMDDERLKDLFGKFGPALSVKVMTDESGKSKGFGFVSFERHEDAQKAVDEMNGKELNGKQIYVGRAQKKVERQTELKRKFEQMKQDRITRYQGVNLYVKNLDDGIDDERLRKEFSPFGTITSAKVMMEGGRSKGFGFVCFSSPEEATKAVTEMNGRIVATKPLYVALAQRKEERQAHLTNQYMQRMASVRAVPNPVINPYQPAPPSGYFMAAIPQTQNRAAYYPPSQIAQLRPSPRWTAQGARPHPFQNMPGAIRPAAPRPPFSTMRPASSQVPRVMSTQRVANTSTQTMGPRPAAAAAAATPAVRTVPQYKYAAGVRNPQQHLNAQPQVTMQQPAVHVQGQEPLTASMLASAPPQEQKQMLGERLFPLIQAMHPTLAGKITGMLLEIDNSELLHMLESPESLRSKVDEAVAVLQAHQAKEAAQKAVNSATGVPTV
Chain of Oxytocin receptor (P30559 whole entry): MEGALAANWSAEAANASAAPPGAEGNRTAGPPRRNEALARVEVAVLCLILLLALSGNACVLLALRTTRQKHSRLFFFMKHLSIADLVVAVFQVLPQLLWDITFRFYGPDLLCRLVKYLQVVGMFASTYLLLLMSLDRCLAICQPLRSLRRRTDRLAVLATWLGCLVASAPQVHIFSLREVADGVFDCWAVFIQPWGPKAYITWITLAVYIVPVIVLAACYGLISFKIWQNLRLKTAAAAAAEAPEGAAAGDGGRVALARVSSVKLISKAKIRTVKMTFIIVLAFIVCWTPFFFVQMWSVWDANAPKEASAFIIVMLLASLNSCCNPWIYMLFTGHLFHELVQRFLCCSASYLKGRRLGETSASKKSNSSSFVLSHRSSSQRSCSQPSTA
Chain of Procathepsin L (P07711 whole entry): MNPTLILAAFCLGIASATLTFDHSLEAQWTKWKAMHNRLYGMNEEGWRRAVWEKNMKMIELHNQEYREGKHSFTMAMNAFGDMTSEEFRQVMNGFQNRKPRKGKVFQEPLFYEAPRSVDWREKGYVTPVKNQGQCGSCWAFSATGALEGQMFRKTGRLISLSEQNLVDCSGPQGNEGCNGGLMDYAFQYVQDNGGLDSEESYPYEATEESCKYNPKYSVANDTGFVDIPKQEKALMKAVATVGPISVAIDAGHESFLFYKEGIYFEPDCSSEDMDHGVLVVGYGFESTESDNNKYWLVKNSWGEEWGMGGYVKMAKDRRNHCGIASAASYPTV

Q: With COC1(NS(=O)(=O)c2ccc(Br)cc2)C(C)=CC(=O)C=C1C as the compound, how does the IC50 (Hexokinase HKDC1) read?
A: Its IC50 is > 80 µM (inactive).

Q: With c1csc(CNc2ncnc3ccc(-c4ccc5c(c4)OCO5)cc23)c1 as the compound, how does the AC50 (Cytochrome P450 2C9) read?
A: The AC50 was 0.794 µM (inconclusive).

Q: Which results are given for COc1cc(C(S)=NC2CCCCC2)ccc1O?
A: IC50 [1]: 2.82 µM (active); IC50 [2]: > 100 µM (inactive); IC50 [3]: > 100 µM (inactive); IC50 [4]: 32.6 µM (active); IC50 [5]: 3.4 µM (active); IC50 [6]: 22.5 µM (active)

Q: For Cn1c(SCC(=O)N2CCOCC2)nnc1-c1cccc(NC(=O)c2ccccc2)c1, which IC50 [7] is on record?
A: The IC50 was 2.62 µM (active).

Q: What about the IC50 [8] of the same compound?
A: The IC50 was 3.37 µM (active).

Q: And the IC50 [9]?
A: The IC50 was > 100 µM (inactive).

Q: And the IC50 [10]?
A: The IC50 was 2.81 µM (active).

Q: For CCC(C)c1ccc(O)c(N)c1 (stereo unspecified), which IC50 (Aspartyl aminopeptidase) is on record?
A: The IC50 was 2.25 µM (active).

Q: And the IC50 (Procathepsin L)?
A: Its IC50 is > 59.6 µM (not active).

Q: Which EC50 (Oxytocin receptor) does the source give for COc1ccc(C2SCCN2C(S)=Nc2cccc(Cl)c2)cc1 (stereo unspecified) here?
A: Its EC50 is > 29.9 µM (not active).

Q: And the EC50 (Vasopressin V1a receptor)?
A: Its EC50 is > 29.9 µM (not active).

Q: What does the source list for COc1cc(/C=C/[N+](=O)[O-])ccc1OCc1cccc(C(=O)O)c1?
A: EC50 [11]: 0.937 µM (active); EC50 [12]: 0.99 µM (active); IC50 [13]: > 80 µM (inactive); EC50 (cells): > 12 µM (inconclusive); EC50 [14]: 0.161 µM (active); EC50 [15]: < 0.1 µM (active); IC50 [16]: > 39.8 µM (not active); EC50 [17]: 2.43 µM (inconclusive); IC50 [18]: 7.32 µM (active); AC50 [19]: 11.9 µM (active)
